Measured values: US9616065B2, “Compositions useful in treating brain-related diseases or disorders and methods using same” (priority 2013, dated 2017)
“Also recorded” adds a separate entry of the source. Like-named read-outs stand apart in the source and are kept apart here.

Columns and labels:
mSERT mutant YETQ-L563V = experiment: Substrate-elicited efflux, mSERT mutant YETQ-L563V; type: cell-based, mouse; details: up to highest testable concentration
Method: Efflux is terminated by collecting the supernatant. Both cells and supernatant are counted by liquid scintillation counting. Efflux is calculated as ratio of supernatant over supernatant and cells.

SERT [1] = molecular target: T1, SERT (Homo sapiens, UniProt P31645); experiment: cell-based
T1 construct: The templates were full-length and nontagged human SERT in pcdna3.1; expressed in transfected cells; host or cells: COS-7, HEK293 or MDCK (uptake); COS-7 (efflux)
Method: (§1) COS-7, HEK293, and MDCK cells were maintained in Dulbecco modified Eagle medium (3.5 g/l glucose) supplemented with FBS (10% each) at 37° C. with 5% CO2. Uptake experiments were performed 2 days after transfecting DNAs (hSERT, human dopamine transporter [hDAT], chimeras or mutants, or empty vector for background) with TransIT-LT1 (Minis Bio LLC, Madison, Wis., USA) transfection reagent and plating the cells in 24- or 96-well plates.
(§2) The uptake was allowed to continue for 10 min at room temperature and was terminated by washing with PBS-CM. […] Vmax and KM are given as mean±S.D. of three independent experiments. […] EC50 values are given as mean±S.E.M. of at least five independent experiments. Statistical significance between vehicle and drug treatments was assessed using Student t-test or one-way analysis of variance (ANOVA) Dunnett's multiple-comparison test (p<0.05).

SmSERT = SmSERT (Schistosoma mansoni, UniProt Q3I1M7); experiment: Transport inhibition constants, SmSERT; type: cell-based
Sequence of SmSERT (Q3I1M7 entry or part of it): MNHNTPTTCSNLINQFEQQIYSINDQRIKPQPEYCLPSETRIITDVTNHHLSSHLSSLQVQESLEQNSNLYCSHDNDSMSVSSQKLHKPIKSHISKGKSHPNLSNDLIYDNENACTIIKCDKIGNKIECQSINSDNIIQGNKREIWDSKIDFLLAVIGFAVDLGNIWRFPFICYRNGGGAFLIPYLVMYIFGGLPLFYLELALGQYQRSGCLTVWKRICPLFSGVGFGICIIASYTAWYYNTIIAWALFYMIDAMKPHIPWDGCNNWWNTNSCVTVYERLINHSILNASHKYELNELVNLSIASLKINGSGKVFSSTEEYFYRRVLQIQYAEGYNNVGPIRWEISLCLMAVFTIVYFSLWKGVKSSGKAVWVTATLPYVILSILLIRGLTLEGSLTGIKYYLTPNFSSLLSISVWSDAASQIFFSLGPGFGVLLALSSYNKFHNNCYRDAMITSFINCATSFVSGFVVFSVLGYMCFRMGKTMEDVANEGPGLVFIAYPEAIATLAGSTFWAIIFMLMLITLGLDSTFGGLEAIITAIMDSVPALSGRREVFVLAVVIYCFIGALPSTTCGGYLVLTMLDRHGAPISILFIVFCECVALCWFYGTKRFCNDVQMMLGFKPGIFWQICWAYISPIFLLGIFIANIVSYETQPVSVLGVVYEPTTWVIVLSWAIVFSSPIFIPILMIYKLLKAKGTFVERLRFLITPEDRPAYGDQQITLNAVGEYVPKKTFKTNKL

[2] = molecular target: T2, hSERT 112C mutant (N112C) (Homo sapiens, UniProt P31645, N112C); experiment: MDMA-elicited [3H]-serotonin efflux in COS-7 cells, 112C mutant; type: cell-based; details: for effect on MDMA-elicited efflux: 112C (N112C) mutant, 1 μM modulator
T2 construct: The templates were full-length and nontagged human SERT in pcdna3.1; expressed in transfected cells; host or cells: COS-7 (efflux)
Method: (§3) COS-7 cells were maintained under the same conditions as above. Efflux experiments were performed 2 days after cell transfection with hSERT or empty vector and plating of the cells in 24-well plates. Cells were washed with room temperature PBS-CM and then loaded with 50 nM [^3H]-serotonin for 1 h. After preloading, cells were washed twice with buffer and then incubated for 10 min with or without substrates at room temperature. After incubation, the supernatant was collected, liquid scintillation fluid added, and the samples counted (Beckman LS-6500 Multi-purpose Scintillation Counter; Beckman Coulter, Brea, Calif.). The cells were solubilized in a solution of 0.1% sodium dodecyl sulfate and 0.1 M NaOH; liquid scintillation fluid was added and tubes were counted as above. All assays were done in quadruplicate.
(§4) The percentage of [^3H]-serotonin efflux among different treatments was calculated by adding counts of supernatant plus cell lysis, with the supernatant counts then divided by the total and multiplied by 100 to yield the percentage of efflux.

SERT [3] = molecular target: T1, SERT; experiment: [3H]-serotonin uptake after preincubation with modulator; type: cell-based; details: for effect on Vmax of serotonin uptake: serotonin uptake kinetics
Method: as §1, §2

SERT [4] = molecular target: T1, SERT; experiment: SERT-mediated serotonin uptake inhibition by SSRIs in presence of modulator; type: cell-based; details: effect weaker than with citalopram
Method: as §1, with “plates. The media was removed and the cells were washed with PBS (137 mM NaCl, 2.7 mM KCl, 4.3 mM Na2HPO4, 1.4 mM KH2PO4, pH 7.4) containing 0.1 mM CaCl2, 1 mM MgCl2, 10 μM clorgyline, 10 μM pargyline, 5 μM RO 41-0960, and 100 μM ascorbic acid (PBS-CM).” for “plates.”
Mutants are functionally tested in transfected COS-7 cells. Based on the success of the approach that identified the A1 site, the critical residues identified elsewhere herein are tested for changes in uptake kinetics and amphetamine-mediated efflux. Following this initial screen, residues displaying altered activity are tested further in uptake inhibition and ligand displacement assays. […] Following uptake, cells are washed and radioactivity is counted using liquid scintillation counting. […] Apparent Km and Vmax are determined using nonlinear regression analysis. The interaction of WT and mutant MAT with psychostimulants and transporter inhibitors is assessed using uptake inhibition assays. […]

SERT E493D mutant = molecular target: T3, SERT E493D mutant (Homo sapiens, UniProt P31645, E493D); experiment: SERT function with mutated extracellular gate; type: cell-based
T3 construct: The templates were full-length and nontagged human SERT in pcdna3.1; expressed in transfected cells; host or cells: COS-7

hDAT = molecular target: T4, hDAT (Homo sapiens, UniProt Q01959); experiment: [3H]-dopamine uptake after preincubation with modulator; type: cell-based
T4 construct: expressed in transfected cells; host or cells: COS-7, HEK293 or MDCK
T4 sequence (Q01959 whole entry): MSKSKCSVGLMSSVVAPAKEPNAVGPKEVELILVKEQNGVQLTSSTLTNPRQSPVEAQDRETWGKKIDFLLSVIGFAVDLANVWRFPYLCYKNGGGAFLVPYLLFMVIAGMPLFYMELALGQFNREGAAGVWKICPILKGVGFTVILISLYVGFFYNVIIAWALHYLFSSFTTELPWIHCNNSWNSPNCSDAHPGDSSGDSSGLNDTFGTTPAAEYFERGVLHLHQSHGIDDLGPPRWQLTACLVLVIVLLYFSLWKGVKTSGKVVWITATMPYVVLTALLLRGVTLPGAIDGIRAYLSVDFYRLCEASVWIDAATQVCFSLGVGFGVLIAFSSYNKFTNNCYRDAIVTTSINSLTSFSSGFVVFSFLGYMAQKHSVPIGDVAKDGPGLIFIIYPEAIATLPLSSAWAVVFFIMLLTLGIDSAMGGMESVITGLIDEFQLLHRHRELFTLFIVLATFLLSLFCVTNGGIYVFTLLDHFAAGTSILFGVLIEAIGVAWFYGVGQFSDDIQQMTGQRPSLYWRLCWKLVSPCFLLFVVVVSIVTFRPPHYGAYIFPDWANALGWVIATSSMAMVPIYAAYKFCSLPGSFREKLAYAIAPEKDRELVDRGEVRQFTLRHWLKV
Method: as §1, §2

paroxetine binding sites = paroxetine binding sites (Homo sapiens, UniProt P31645); experiment: Paroxetine binding
hSERT wild-type = molecular target: T5, hSERT wild-type (Homo sapiens, UniProt P31645); experiment: Basal/leak [3H]-serotonin efflux in COS-7 cells, wild-type; type: cell-based; details: no extracellular substrate, read-out: IC50 inhibition of basal/leak efflux
T5 construct: The templates were full-length and nontagged human SERT in pcdna3.1; expressed in transfected cells; host or cells: COS-7 (efflux)
Method: as §3, §4

wild-type human SERT = wild-type human SERT (Homo sapiens, UniProt P31645); experiment: MDMA-elicited [3H]-serotonin efflux in COS-7 cells, wild-type; type: cell-based; parameters: The templates were full-length and nontagged human SERT in pcdna3.1; expressed in transfected cells; host or cells: COS-7 (efflux); details: for effect on MDMA-elicited efflux: 1 μM modulator
Method: as §3, §4

hSERT 112C mutant = molecular target: T6, hSERT 112C mutant (Homo sapiens, UniProt P31645, N112C); experiment: Basal/leak [3H]-serotonin efflux in COS-7 cells, 112C mutant; type: cell-based
T6 construct: The templates were full-length and nontagged human SERT in pcdna3.1; expressed in transfected cells; host or cells: COS-7 (efflux); COS-7, HEK293 or MDCK (uptake)
Method: as §3, §4

CNC(C)Cc1ccc2c(c1)OCO2 (racemic) [(±)MDMA, methylenedioxy-methamphetamine]
reversal of transport (efflux) (mSERT mutant YETQ-L563V): did not elicit any significant reversal of transport | Ki (SERT [1]): 2700 ± 500 nM | Ki (SmSERT): 313000 ± 159000 nM | affinity for MDMA of mutant versus wild-type ([2]; N112C, dose-response experiment with MDMA): reduced by fivefold

Cc1cc2nc(-c3ccc(SCC(=O)Nc4ccc(S(=O)(=O)NC5CC5)cc4)nc3)[nH]c2cc1C [ATM1, N-[4-(cyclopropylsulfamoyl)phenyl]-2-{[5-(5,6-dimethyl-1H-benzimidazol-2-yl)-2-pyridinyl]sulfanyl}acetamide]
effect on SERT uptake activity / specificity (SERT [3]): SERT-specific inhibitor | mechanism of SERT inhibition (SERT [3]; Vmax and KM): non-competitive mechanism | effect on SERT uptake activity / specificity (SERT [3]; listed as KM-456): specific for SERT | effect on affinity of fluoxetine for SERT (SERT [4]): decreasing their affinity for SERT | effect on SERT function (SERT E493D mutant): not affected

CN(C)c1ccc(C(C(=O)NCc2ccccc2)N(Cc2cccnc2)C(=O)c2snc(C(N)=O)c2N)cc1 (stereo not drawn) [ATM7, 4-amino-N^5-{2-(benzylamino)-1-[4-(dimethylamino)phenyl]-2-oxoethyl}-N^5-(3-pyridinylmethyl)-1,2-thiazole-3,5-dicarboxamide]
effect on SERT uptake activity / specificity (SERT [3]): activated serotonin uptake very potently at nanomolar concentrations | shape of concentration response on transporter uptake (SERT [3]): bell-shaped response | activation of serotonin uptake (SERT [3]; dose-response assay): up to 50% | shape of concentration response on transporter uptake (SERT [3]; listed as KM-986): biphasic mode of action, enhancing transporter activity at low concentrations and inhibiting transporter function at higher concentrations | effect on Vmax of serotonin uptake (SERT [3]): did not affect Vmax; also recorded: no effect | effect on Vmax of serotonin uptake (SERT [3]; listed as KM-986): do not observe any effect; also recorded: no effect | effect on hSERT uptake at low and high substrate concentration (SERT [3]; substrate 25 and 100 nM): displayed activity only at low concentrations | effect on DAT uptake activity / specificity (hDAT): also DAT activity at higher concentrations | effect on paroxetine binding sites (paroxetine binding sites): decreased | IC50 (hSERT wild-type): 0.63 ± 0.31 nM | effect on affinity for MDMA (wild-type human SERT; 1 μM ATM7): not affected | efficacy of MDMA in eliciting release of intracellular serotonin in the presence of ATM7 (wild-type human SERT; 1 μM ATM7, vehicle treated 380%±10%): 510%±17% | effect on MDMA-elicited efflux (wild-type human SERT): enhanced MDMA-elicited efflux | effect on MDMA-elicited efflux (wild-type human SERT; listed as KM-986): potentiates MDMA-elicited efflux | IC50 (hSERT 112C mutant): 37 ± 25 nM | efficacy of MDMA in eliciting release of intracellular serotonin in the presence of ATM7 ([2]; 1 μM ATM7, 112C mutant, vehicle treated 365%±40%): 375%±45% | effect on MDMA-elicited efflux [2]: had no effect on MDMA-elicited efflux | effect on MDMA-elicited efflux ([2]; listed as KM-986): does not show KM-986-mediated potentiation of MDMA-elicited efflux
